Assays:
Type in all cases: cell-based, human
[1] = test system: Keloid fibroblast (KF) cells (CRL1762); experiment: Example 1: Hoechst / propidium iodide staining of keloid fibroblasts after 16 h treatment; conditions: for number of KF cells: 40 μM KC7F2, 25 uM IDF-11774, 25 uM PX-478, 10 mM 2-DG, compared to control untreated cells, FIGS. 4A-B
[2] = test system: Keloid fibroblast (KF) cells (CRL1762); experiment: Example 2: phalloidin / DAPI staining of keloid fibroblasts, 10,000 cells per well; conditions: 16 hours
Description: (§1) Keloid fibroblast (KF) cells (CRL1762) and normal skin fibroblasts (NF, CRL2439) were both purchased from the American Type Culture Collection (ATCC, Manassas, Va.). This assay compared the effects of KC7F2 versus the glycolytic inhibitor 2-DG on the cellular consequences of HIF-1 functional blockade.
(§2) For each human skin fibroblast, 10,000 cells were plated per well. Each well was treated and incubated for 16 hours with the following: Control, no chemical treatment; 40 μM KC7F2; 10 mM 2-deoxyglucose (2-DG), a glycolysis inhibitor; and both 40 μM KC7F2 and 10 mM 2-DG. Cells were stained with phalloidin for filamentous actin and cells were labelled DAPI (4′,6-diamidino-2-phenylindolepropridium iodide) to indicate dying cells. Images were taken at a magnification of 4 times (4×) and 10 times (10×).

[3] = test system: Keloid fibroblast (KF) cells (CRL1762); experiment: Example 3: phalloidin / DAPI staining of keloid fibroblasts, 20,000 cells per well; conditions: 16 hours
Description: as §1
as §2, with “20,000 cells,” for “10,000 cells”

CN1CCN(C(=O)COc2ccc(C34CC5CC(CC(C5)C3)C4)cc2)CC1 [IDF-11774, 2-(4-((3r,5r,7r)-adamantan-1-yl)phenoxy)-1-(4-methylpiperazin-1-yl)ethan-1-one]
number of KF cells [1]: worked less well, but showed the same trend

O=S(=O)(NCCSSCCNS(=O)(=O)c1cc(Cl)ccc1Cl)c1cc(Cl)ccc1Cl [KC7F2]
number of KF cells ([2]; 40 μM KC7F2, FIGS. 5A, 6A): reduced the number of KF cells consistently and the best | number of KF cells [1]: reduced the number of KF cells consistently and the best | number of KF cells ([3]; 40 μM KC7F2, FIGS. 7A, 8A): reduced the number of KF cells consistently and the best

O=CC[C@@H](O)[C@H](O)[C@H](O)CO [2-DG, 2-deoxyglucose]
proliferation ([2]; 10 mM 2-DG alone): insufficient to impede proliferation to an appreciable amount | proliferation ([1]; 10 mM 2-DG alone): insufficient to impede proliferation to an appreciable amount | proliferation ([3]; 10 mM 2-DG alone): insufficient to impede proliferation to an appreciable amount
